According to ChEMBL document CHEMBL4346693, “Exploring the PROTAC degron candidates: OBHSA with different side chains as novel selective estrogen receptor degraders (SERDs)” (Eur J Med Chem, 2019):
The source made the active and inactive calls. The rule behind the calls is not given here.

Test system: not listed separately
Assay: Half life in Sprague-Dawley rat at 3 mg/kg, iv by LC-MS/MS analysis
Assay type: ADME, organism-based
Settings: in vivo

COc1ccc(N(CC(F)(F)F)S(=O)(=O)[C@H]2C[C@H]3O[C@@H]2C(c2ccc(OCCN4CCCC4)cc2)=C3c2ccc(O)cc2)cc1 (relative stereo) showed a half-life of 6.2 h.

Test system: not listed separately
Assay: AUC in Sprague-Dawley rat at 3 mg/kg, iv by LC-MS/MS analysis
Assay type: ADME, organism-based
Settings: in vivo

With COc1ccc(N(CC(F)(F)F)S(=O)(=O)[C@H]2C[C@H]3O[C@@H]2C(c2ccc(OCCN4CCCC4)cc2)=C3c2ccc(O)cc2)cc1 (relative stereo) the AUC was 1.08 µg·h/mL.

Test system: not listed separately
Assay: Oral bioavailability in Sprague-Dawley rat at 10 mg/kg by LC-MS/MS analysis
Assay type: ADME, organism-based
Settings: in vivo

Work on COc1ccc(N(CC(F)(F)F)S(=O)(=O)[C@H]2C[C@H]3O[C@@H]2C(c2ccc(OCCN4CCCC4)cc2)=C3c2ccc(O)cc2)cc1 (relative stereo) yielded a bioavailability of 9.2%.

Test system: not listed separately
Assay: Volume of distribution at steady state in Sprague-Dawley rat at 3 mg/kg, iv by LC-MS/MS analysis
Assay type: ADME, organism-based
Settings: in vivo, read-out: Vdss

With COc1ccc(N(CC(F)(F)F)S(=O)(=O)[C@H]2C[C@H]3O[C@@H]2C(c2ccc(OCCN4CCCC4)cc2)=C3c2ccc(O)cc2)cc1 (relative stereo) the Vd was 9.55 L/kg.

Biological target: T1, Estrogen receptor (Homo sapiens) (UniProt P03372)
T1 sequence (whole entry): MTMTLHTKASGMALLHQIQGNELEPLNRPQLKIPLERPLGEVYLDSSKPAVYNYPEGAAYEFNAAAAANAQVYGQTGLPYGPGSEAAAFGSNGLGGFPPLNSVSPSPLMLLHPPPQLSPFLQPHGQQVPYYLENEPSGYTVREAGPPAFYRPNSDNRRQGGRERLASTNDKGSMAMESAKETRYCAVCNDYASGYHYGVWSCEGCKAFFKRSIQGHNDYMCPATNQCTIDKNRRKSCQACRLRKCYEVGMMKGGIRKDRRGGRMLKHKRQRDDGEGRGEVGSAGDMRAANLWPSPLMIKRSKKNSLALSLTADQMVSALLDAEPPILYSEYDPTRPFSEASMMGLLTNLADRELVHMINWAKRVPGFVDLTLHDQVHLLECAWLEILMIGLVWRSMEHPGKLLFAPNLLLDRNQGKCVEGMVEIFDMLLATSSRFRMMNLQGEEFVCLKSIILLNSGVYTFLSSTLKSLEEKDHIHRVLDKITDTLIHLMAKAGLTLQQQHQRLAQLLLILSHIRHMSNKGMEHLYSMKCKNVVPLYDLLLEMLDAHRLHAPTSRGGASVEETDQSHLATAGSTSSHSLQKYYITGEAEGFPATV
Assay: Induction of ERalpha protein degradation in human MCF7 cells at 1 uM incubated for 20 hrs by Western blot analysis relative to control
Assay type: cell-based
Settings: not given

With COc1ccc(N(CC(F)(F)F)S(=O)(=O)[C@H]2C[C@H]3O[C@@H]2C(c2ccc(OCCN4CCCC4)cc2)=C3c2ccc(O)cc2)cc1 (relative stereo) the Activity was 100%.

Biological target: T1, Estrogen receptor (Homo sapiens)
Assay: Induction of ERalpha protein degradation in human MCF7 cells at 0.5 uM incubated for 20 hrs by Western blot analysis
Assay type: cell-based
Settings: not given

With COc1ccc(N(CC(F)(F)F)S(=O)(=O)[C@H]2C[C@H]3O[C@@H]2C(c2ccc(OCCN4CCCC4)cc2)=C3c2ccc(O)cc2)cc1 (relative stereo) the Activity was “Active”.

Test system: not listed separately
Assay: Cmax in Sprague-Dawley rat at 3 mg/kg, iv by LC-MS/MS analysis
Assay type: ADME, organism-based
Parameters: dose 3 mg/kg, route intravenous
Settings: in vivo

In the case of COc1ccc(N(CC(F)(F)F)S(=O)(=O)[C@H]2C[C@H]3O[C@@H]2C(c2ccc(OCCN4CCCC4)cc2)=C3c2ccc(O)cc2)cc1 (relative stereo), the Cmax is reported as 1 µg/mL.

Biological target: T1, Estrogen receptor (Homo sapiens)
Assay: Binding affinity to purified human ERalpha LBD incubated for 2 hrs by fluorescence tracer based competitive fluorometric binding assay relative to estradiol
Settings: not given

Point of comparison: CCN(c1ccc(OCCCCCCC(=O)O)cc1)S(=O)(=O)[C@H]1C[C@H]2O[C@@H]1C(c1ccc(O)cc1)=C2c1ccc(O)cc1 (relative stereo), RBA 1.22%. Against it:
- O=S(=O)([C@H]1C[C@H]2O[C@@H]1C(c1ccc(OCC(O)CO)cc1)=C2c1ccc(O)cc1)N(CC(F)(F)F)c1ccc(Cl)cc1 (relative stereo) — higher, 1.62%
- COc1ccc(N(CC(F)(F)F)S(=O)(=O)[C@H]2C[C@H]3O[C@@H]2C(c2ccc(OCCCCCCCCCCC(=O)O)cc2)=C3c2ccc(O)cc2)cc1 (relative stereo) — lower, 0.06%
- CN(c1ccccc1)S(=O)(=O)[C@H]1C[C@H]2O[C@@H]1C(c1ccc(OCCN3CCCCC3)cc1)=C2c1ccc(O)cc1 (relative stereo) — lower, 0.95%
- CCN(c1ccccc1)S(=O)(=O)[C@H]1C[C@H]2O[C@@H]1C(c1ccc(OCCN3CCCCC3)cc1)=C2c1ccc(O)cc1 (relative stereo) — higher, 2.51%
- CCN(c1ccccc1)S(=O)(=O)[C@H]1C[C@H]2O[C@@H]1C(c1ccc(OCCCCCCCC(=O)O)cc1)=C2c1ccc(O)cc1 (relative stereo) — lower, 1.2%
- CCN(c1ccc(OCC(O)CO)cc1)S(=O)(=O)[C@H]1C[C@H]2O[C@@H]1C(c1ccc(O)cc1)=C2c1ccc(O)cc1 (relative stereo) — lower, 0.46%
- COc1ccc(N(CC(F)(F)F)S(=O)(=O)[C@H]2C[C@H]3O[C@@H]2C(c2ccc(OCCN4CCCC4)cc2)=C3c2ccc(O)cc2)cc1 (relative stereo) — higher, 2.12%

Test system: MCF7
Assay: cells
Settings: Homo sapiens, MCF7, 72 h
Description: Antiproliferative activity against human MCF7 cells incubated for 72 hrs by MTT assay

Point of comparison: COc1ccc(N(CC(F)(F)F)S(=O)(=O)[C@H]2C[C@H]3O[C@@H]2C(c2ccc(OCCCCCCCCCCC(=O)O)cc2)=C3c2ccc(O)cc2)cc1 (relative stereo), IC50 14.3 µM. Against it:
- O=S(=O)([C@H]1C[C@H]2O[C@@H]1C(c1ccc(OCC(O)CO)cc1)=C2c1ccc(O)cc1)N(CC(F)(F)F)c1ccc(Cl)cc1 (relative stereo) — within 1.5-fold, 16.8 µM
- CCN(c1ccc(OCCCCCCC(=O)O)cc1)S(=O)(=O)[C@H]1C[C@H]2O[C@@H]1C(c1ccc(O)cc1)=C2c1ccc(O)cc1 (relative stereo) — higher, > 50 µM
- CN(c1ccccc1)S(=O)(=O)[C@H]1C[C@H]2O[C@@H]1C(c1ccc(OCCN3CCCCC3)cc1)=C2c1ccc(O)cc1 (relative stereo) — within 1.5-fold, 15.2 µM
- CCN(c1ccccc1)S(=O)(=O)[C@H]1C[C@H]2O[C@@H]1C(c1ccc(OCCN3CCCCC3)cc1)=C2c1ccc(O)cc1 (relative stereo) — within 1.5-fold, 12.9 µM
- CCN(c1ccccc1)S(=O)(=O)[C@H]1C[C@H]2O[C@@H]1C(c1ccc(OCCCCCCCC(=O)O)cc1)=C2c1ccc(O)cc1 (relative stereo) — 1.9-fold higher, 27.4 µM
- CCN(c1ccc(OCC(O)CO)cc1)S(=O)(=O)[C@H]1C[C@H]2O[C@@H]1C(c1ccc(O)cc1)=C2c1ccc(O)cc1 (relative stereo) — 2.3-fold higher, 32.3 µM
- COc1ccc(N(CC(F)(F)F)S(=O)(=O)[C@H]2C[C@H]3O[C@@H]2C(c2ccc(OCCN4CCCC4)cc2)=C3c2ccc(O)cc2)cc1 (relative stereo) — 2.3-fold lower, 6.1 µM

Test system: not listed separately
Assay: Clearance in Sprague-Dawley rat at 3 mg/kg, iv by LC-MS/MS analysis
Assay type: ADME, organism-based
Settings: in vivo

For COc1ccc(N(CC(F)(F)F)S(=O)(=O)[C@H]2C[C@H]3O[C@@H]2C(c2ccc(OCCN4CCCC4)cc2)=C3c2ccc(O)cc2)cc1 (relative stereo), the clearance was 2.76 L/h/kg.

Test system: not listed separately
Assay: Half life in Sprague-Dawley rat at 10 mg/kg, po by LC-MS/MS analysis
Assay type: ADME, organism-based
Settings: in vivo

For COc1ccc(N(CC(F)(F)F)S(=O)(=O)[C@H]2C[C@H]3O[C@@H]2C(c2ccc(OCCN4CCCC4)cc2)=C3c2ccc(O)cc2)cc1 (relative stereo), the half-life was 3.7 h.

Biological target: Estrogen receptor beta (Homo sapiens) (UniProt Q92731)
Sequence (Q92731 whole entry): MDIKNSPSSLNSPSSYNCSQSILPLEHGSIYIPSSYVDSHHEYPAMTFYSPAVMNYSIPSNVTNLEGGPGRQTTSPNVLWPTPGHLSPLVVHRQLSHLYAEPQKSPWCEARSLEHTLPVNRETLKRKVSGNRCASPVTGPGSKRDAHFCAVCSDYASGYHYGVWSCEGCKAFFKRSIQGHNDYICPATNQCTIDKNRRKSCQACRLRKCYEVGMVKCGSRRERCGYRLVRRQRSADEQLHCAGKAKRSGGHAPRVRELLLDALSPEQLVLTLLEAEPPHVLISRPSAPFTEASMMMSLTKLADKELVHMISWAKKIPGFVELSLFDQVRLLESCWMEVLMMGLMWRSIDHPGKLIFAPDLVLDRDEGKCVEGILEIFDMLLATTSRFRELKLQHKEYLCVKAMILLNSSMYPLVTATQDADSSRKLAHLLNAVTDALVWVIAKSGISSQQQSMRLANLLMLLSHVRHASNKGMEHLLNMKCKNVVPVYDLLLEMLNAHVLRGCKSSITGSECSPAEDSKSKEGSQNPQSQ
Assay: Binding affinity to ERbeta (unknown origin) incubated for 2 hrs by fluorescence tracer based competitive fluorometric binding assay relative to estradiol
Settings: not given

Point of comparison: CCN(c1ccccc1)S(=O)(=O)[C@H]1C[C@H]2O[C@@H]1C(c1ccc(OCCCCCCCC(=O)O)cc1)=C2c1ccc(O)cc1 (relative stereo), RBA 0.4%. Against it:
- O=S(=O)([C@H]1C[C@H]2O[C@@H]1C(c1ccc(OCC(O)CO)cc1)=C2c1ccc(O)cc1)N(CC(F)(F)F)c1ccc(Cl)cc1 (relative stereo) — lower, < 0.01%
- COc1ccc(N(CC(F)(F)F)S(=O)(=O)[C@H]2C[C@H]3O[C@@H]2C(c2ccc(OCCCCCCCCCCC(=O)O)cc2)=C3c2ccc(O)cc2)cc1 (relative stereo) — higher, 0.7%
- CCN(c1ccc(OCCCCCCC(=O)O)cc1)S(=O)(=O)[C@H]1C[C@H]2O[C@@H]1C(c1ccc(O)cc1)=C2c1ccc(O)cc1 (relative stereo) — higher, 0.41%
- CN(c1ccccc1)S(=O)(=O)[C@H]1C[C@H]2O[C@@H]1C(c1ccc(OCCN3CCCCC3)cc1)=C2c1ccc(O)cc1 (relative stereo) — higher, 0.79%
- CCN(c1ccccc1)S(=O)(=O)[C@H]1C[C@H]2O[C@@H]1C(c1ccc(OCCN3CCCCC3)cc1)=C2c1ccc(O)cc1 (relative stereo) — higher, 0.81%
- CCN(c1ccc(OCC(O)CO)cc1)S(=O)(=O)[C@H]1C[C@H]2O[C@@H]1C(c1ccc(O)cc1)=C2c1ccc(O)cc1 (relative stereo) — higher, 0.53%
- COc1ccc(N(CC(F)(F)F)S(=O)(=O)[C@H]2C[C@H]3O[C@@H]2C(c2ccc(OCCN4CCCC4)cc2)=C3c2ccc(O)cc2)cc1 (relative stereo) — higher, 1.81%

Biological target: T1, Estrogen receptor (Homo sapiens)
Assay: Induction of ERalpha protein degradation in human MCF7 cells assessed as ERalpha protein level at 10 uM incubated for 20 hrs by Western blot analysis relative to control
Assay type: cell-based
Settings: not given

Point of comparison: COc1ccc(N(CC(F)(F)F)S(=O)(=O)[C@H]2C[C@H]3O[C@@H]2C(c2ccc(OCCCCCCCCCCC(=O)O)cc2)=C3c2ccc(O)cc2)cc1 (relative stereo), Activity 83%. Against it:
- O=S(=O)([C@H]1C[C@H]2O[C@@H]1C(c1ccc(OCC(O)CO)cc1)=C2c1ccc(O)cc1)N(CC(F)(F)F)c1ccc(Cl)cc1 (relative stereo) — lower, 38%
- CCN(c1ccc(OCCCCCCC(=O)O)cc1)S(=O)(=O)[C@H]1C[C@H]2O[C@@H]1C(c1ccc(O)cc1)=C2c1ccc(O)cc1 (relative stereo) — higher, 92%
- CN(c1ccccc1)S(=O)(=O)[C@H]1C[C@H]2O[C@@H]1C(c1ccc(OCCN3CCCCC3)cc1)=C2c1ccc(O)cc1 (relative stereo) — higher, 98%
- CCN(c1ccccc1)S(=O)(=O)[C@H]1C[C@H]2O[C@@H]1C(c1ccc(OCCN3CCCCC3)cc1)=C2c1ccc(O)cc1 (relative stereo) — higher, 95%
- CCN(c1ccccc1)S(=O)(=O)[C@H]1C[C@H]2O[C@@H]1C(c1ccc(OCCCCCCCC(=O)O)cc1)=C2c1ccc(O)cc1 (relative stereo) — lower, 79%
- CCN(c1ccc(OCC(O)CO)cc1)S(=O)(=O)[C@H]1C[C@H]2O[C@@H]1C(c1ccc(O)cc1)=C2c1ccc(O)cc1 (relative stereo) — lower, 63%
- COc1ccc(N(CC(F)(F)F)S(=O)(=O)[C@H]2C[C@H]3O[C@@H]2C(c2ccc(OCCN4CCCC4)cc2)=C3c2ccc(O)cc2)cc1 (relative stereo) — lower, 1%

Test system: not listed separately
Assay: Cmax in Sprague-Dawley rat at 10 mg/kg, po by LC-MS/MS analysis
Assay type: ADME, organism-based
Parameters: dose 10 mg/kg, route oral
Settings: in vivo

COc1ccc(N(CC(F)(F)F)S(=O)(=O)[C@H]2C[C@H]3O[C@@H]2C(c2ccc(OCCN4CCCC4)cc2)=C3c2ccc(O)cc2)cc1 (relative stereo) showed a Cmax of 0.05 µg/mL.

Test system: not listed separately
Assay: AUC in Sprague-Dawley rat at 10 mg/kg, po by LC-MS/MS analysis
Assay type: ADME, organism-based
Settings: in vivo

COc1ccc(N(CC(F)(F)F)S(=O)(=O)[C@H]2C[C@H]3O[C@@H]2C(c2ccc(OCCN4CCCC4)cc2)=C3c2ccc(O)cc2)cc1 (relative stereo) gave an AUC of 0.33 µg·h/mL.
